According to patent US9642874B2, “Compositions of selenoorganic compounds and methods of use thereof” (Alltech, Inc., priority 2014, dated 2017):

What was measured:
Insr = Insr mRNA expression (QRT-PCR) in AML-12 cells; type: cell-based, mouse; conditions: insulin alone, 6 hours, without 8-CPT/Dex
Experimental: (§1) For RNA analysis of insulin receptor (Insr), insulin like growth factor receptor (Igf1r), and Glucose-6-Phosphatase (G6pc), AML-12 cells were amplified in ITS, Dex and FBS-containing DMEM/F12 media, and cultured on 24-well (6.7×10^4 cells/well) plates in 10% FBS ITS-free DMEM/F12 media with or without Dex overnight. These cells were treated with control (water) or various compounds (diluted in 10% FBS ITS-free DMEM/F12 media with or without Dex) for 6 hours, 24 hours, or 48 hours.
(§2) In some experiments, the AML-12 cells were washed twice with PBS after the compound treatments for 24 hours, and then incubated with selenium compounds (150 or 300 ppb of each compound) in the presence or absence of insulin (10 or 100 nM), 0.1 mM 8-CPT (Sigma), or 0.5 μM Dex in serum-free, glucose/phenol red-free DMEM media supplemented with 20 mM lactose and 2 mM pyruvate, and 15 mM HEPES (glucose-production media) for another 6 hours. After treatments, cell media were collected and subjected to glucose assays using Abcam glucose assay kit according to the manufacturer's protocol. […]
(§3) Total RNA from these cells was isolated using Trizol (Invitrogen) according to the manufacturer's protocol, and then incubated with DNase I to remove any potential contaminated genomic DNA. […] Three to six samples were analyzed in each treatment group. […]

G6pc = G6pc mRNA expression (QRT-PCR) in AML-12 cells; type: cell-based, mouse; conditions: insulin 10 and 100 nM
Experimental: as §1, §2, §3

Substance: insulin: insulin (10 or 100 nM, Sigma) used as comparator and cotreatment
- Insr expression (Insr): did not increase
- G6pc expression (G6pc; 6 hours, FBS/ITS/Dex-free media): significantly inhibited G6pc expression
- 8-CPT/Dex-induced G6pc expression (G6pc; vs 8-CPT/Dex group): significantly decreased 8-CPT/Dex-induced G6pc expression
